# Laboratory results from patent US4931498A, “Immobilized artificial membranes” (Purdue Research Foundation, priority 1988, dated 1990).
# Square brackets hold non-standard residues; d marks the D form. Ends that are not written are not given here. Peptide text beside a SMILES is read from it.
# Assays:
# [1] = HPLC elution on Nucleosil-lecithin (immobilized artificial membrane) column; type: physicochemical; design: Elution times: unit not given beside the values; conditions: for Elution times: Nucleosil-lecithin column, mobile phase isotonic buffered saline at 1.0 ml/min, detection at 260 nm; for Elution Volumes on Nucleosil-Lecithin, Mobile Phase PBS: mobile phase isotonic phosphate buffered saline (pH 7.34); for Elution Volumes on Nucleosil-Lecithin, Mobile Phase PBS / Elution Volumes on Nucleosil-Lecithin, Mobile Phase 0.1% TFA: detection 220 nm; for Elution Volumes on Nucleosil-Lecithin, Mobile Phase 0.1% TFA: peptides dissolved in 0.1% aqueous TFA
# Protocol: A 4 mm×100 mm HPLC column was packed with about one gram of Nucleosil-lecithin (pooled from several preparations above) using a Shandon column packer. Excess Nucleosil-lecithin (1.45 grams) was suspended in 15 ml of degassed methanol and then sonicated 5 minutes to assure particle dispersion. The dispersion was transferred to the 30-ml slurry reservoir on the column packer, and 15 ml of degassed methanol was added to fill the reservoir. The column was packed at 4500 psi.
# The HPLC elution properties of the Nucleosil-lecithin column were evaluated.
# Separation of 2-deoxycytidine (C), 2-deoxyuridine (U), 2'-deoxyguanosine (G) and 2'-deoxyadenosine (A) was effected using isotonic buffered saline as the mobile phase at 1.0 ml/min with detection at 260 nm. Elution times were as follows: C - 1.175; U - 1.465; G - 1.730; and A - 2.090.
# FIG. 11 is a chromatogram for a mixture of Peptides I and II, dissolved in 0.1% aqueous trifluoracetic acid (TFA) and detected at 220 nm. In FIG. 11 the mobile phase was isotonic phosphate buffered saline (pH 7.34). FIG. 12 is a chromatogram for a mixture of Peptides III and IV, dissolved in 0.1% aqueous trifluoracetic acid (TFA) and detected at 220 nm. In FIG. 12 the mobile phase was 0.1% TFA.
# [2] = HPLC elution on cholesterol-loaded Nucleosil-lecithin column; type: physicochemical; conditions: for Elution Volumes by Mobile Phase, H2O: mobile phase water
# Protocol: The Nucleosil-lecithin chromatography support material was then "loaded" with cholesterol in situ using the following procedure.
# A solution of 80 ml of 1 mg/ml cholesterol in MeOH:isopropanol/8:2 was pumped through the Nucleosil-lecithin using a Bendex pump. […] Approximately […] was recovered in the effluent showing that 40 mg of cholesterol was loaded onto the Nucleosil-lecithin column. This is approximately 50% by weight of the bonded phase. The Nucleosil-lecithin/cholesterol column containing MeOH/isopropanol was attached to the HPLC and eluted with water (approximately 100 ml). The mobile phase was changed to 0.1% TFA and peptides dissolved in 0.1% TFA were injected to determine the elution volumes. The mobile phase was changed to water and the peptides were reinjected after the column was equilibrated with 100 ml of water to determine the elution volumes. The column was washed with PBS buffer (100 ml) and the peptides were again injected to determine elution volumes using PBS as the mobile phase.
Compound,Elution times [1],"Elution Volumes by Mobile Phase, 0.1% TFA [2]","Elution Volumes by Mobile Phase, PBS [2]","Elution Volumes by Mobile Phase, H2O [2]","Elution Volumes on Nucleosil-Lecithin, Mobile Phase PBS [1]","Elution Volumes on Nucleosil-Lecithin, Mobile Phase 0.1% TFA [1]"
Nc1ncnc2c1ncn2[C@H]1C[C@H](O)[C@@H](CO)O1 [2'-deoxyadenosine],2.090,–,–,–,–,–
Nc1nc2c(ncn2[C@H]2C[C@H](O)[C@@H](CO)O2)c(=O)[nH]1 [2'-deoxyguanosine],1.730,–,–,–,–,–
Nc1ccn([C@H]2C[C@H](O)[C@@H](CO)O2)c(=O)n1 [2-deoxycytidine],1.175,–,–,–,–,–
O=c1ccn([C@H]2C[C@H](O)[C@@H](CO)O2)c(=O)[nH]1 [2-deoxyuridine],1.465,–,–,–,–,–
"MPSWTGG [Peptide IV, NH2 M-P-S-W-T-G-G-COOH]",–,2.9,5.0,4.9,4.2,4.1
"MPSWTGGC [Peptide III, NH2 M-P-S-W-T-G-G-C--COOH]",–,5.3,6.9,9.2,10.0,9.4
"YGSTWPG [Peptide II, NH2 Y-G-S-T-W-P-G-COOH]",–,2.7,4.8,6.6,7.6,3.1
"YGSTWPGC [Peptide I, NH2 Y-G-S-T-W-P-G-C--COOH]",–,5.3,7.9,7.3,13.1,7.3

# Other lines, results leading:
Elution times [1],"Elution Volumes by Mobile Phase, 0.1% TFA [2]","Elution Volumes by Mobile Phase, PBS [2]","Elution Volumes by Mobile Phase, H2O [2]","Elution Volumes on Nucleosil-Lecithin, Mobile Phase PBS [1]","Elution Volumes on Nucleosil-Lecithin, Mobile Phase 0.1% TFA [1]",Compound
–,5.0,6.5,3.0,–,–,"CSCC[C@@H](N)C(=O)N1CCC[C@@H]1C(=O)N[C@H](CO)C(=O)N[C@H](Cc1c[nH]c2ccccc12)C(=O)N[C@@H](C(=O)NCC(=O)NCC(=O)N[C@H](CS)C(=O)O)[C@H](C)O [Peptide VIII, NH2 d,M-d,P-d,S-d,W-d,T-G-G-d,C--COOH] (H-[dM][dP][dS][dW][dT]GG[dC]-OH)"
–,1.3,3.2,0.8,3.8,–,"Ac-HIFNQ-NH2 [Peptide VII, NacH-I-F-N-QNH2]"
–,6.6,–,–,–,–,"CGYGSTWP [Peptide V, NH2 C-G-Y-G-S-T-W-P--COOH]"
–,1.0,4.2,0.8,5.8,–,"HIFNQ-NH2 [Peptide VI, NH2 H-I-F-N-QNH2]"
